According to patent US10336759B2, “Salts and processes of preparing a PI3K inhibitor” (Incyte Corporation, priority 2015, dated 2019):

Columns and labels:
Type in all cases: biochemical
PI3Kα = PI3Kα (Homo sapiens (Human), UniProt P42336); assay: PI3K Enzyme Assay (Example A2), PI3Kα; conditions: assay of Example A2, 1000 μM ATP
Experimental: (§1) PI3K isoforms α, β, δ and γ are purchased from Millipore (Bedford, Mass.).
(§2) The kinase reactions are conducted in clear-bottom 96-well plate from Thermo Fisher Scientific in a final volume of 24 μL. Inhibitors are first diluted serially in DMSO and added to the plate wells before the addition of other reaction components. The final concentration of DMSO in the assay is 0.5%. […] The reaction mixture is prepared containing 50 μM PIP2, kinase and varying concentration of inhibitors. […] Reactions are incubated for 180 minutes and terminated by the addition of 100 μL of 1 M potassium phosphate pH 8.0, 30 mM EDTA quench buffer. A 100 μL aliquot of the reaction solution are then transferred to 96-well Millipore MultiScreen IP 0.45 μm PVDF filter plate (The filter plate is prewetted with 200 μL 100% ethanol, distilled water, and 1 M potassium phosphate pH 8.0, respectively). […] After drying by aspiration and blotting, the plate is air dried in an incubator at 37° C. overnight. Packard TopCount adapter (Millipore) is then attached to the plate followed with addition of 120 μL Microscint 20 scintillation cocktail (Perkin Elmer) in each well. After the plate sealing, the radioactivity of the product is determined by scintillation counting on Topcount (Perkin-Elmer). […]

PI3Kγ = PI3Kγ (Homo sapiens (Human), UniProt P48736); assay: PI3K Enzyme Assay (Example A2), PI3Kγ; conditions: assay of Example A2, 1000 μM ATP
PI3Kγ, sequence (P48736 whole entry): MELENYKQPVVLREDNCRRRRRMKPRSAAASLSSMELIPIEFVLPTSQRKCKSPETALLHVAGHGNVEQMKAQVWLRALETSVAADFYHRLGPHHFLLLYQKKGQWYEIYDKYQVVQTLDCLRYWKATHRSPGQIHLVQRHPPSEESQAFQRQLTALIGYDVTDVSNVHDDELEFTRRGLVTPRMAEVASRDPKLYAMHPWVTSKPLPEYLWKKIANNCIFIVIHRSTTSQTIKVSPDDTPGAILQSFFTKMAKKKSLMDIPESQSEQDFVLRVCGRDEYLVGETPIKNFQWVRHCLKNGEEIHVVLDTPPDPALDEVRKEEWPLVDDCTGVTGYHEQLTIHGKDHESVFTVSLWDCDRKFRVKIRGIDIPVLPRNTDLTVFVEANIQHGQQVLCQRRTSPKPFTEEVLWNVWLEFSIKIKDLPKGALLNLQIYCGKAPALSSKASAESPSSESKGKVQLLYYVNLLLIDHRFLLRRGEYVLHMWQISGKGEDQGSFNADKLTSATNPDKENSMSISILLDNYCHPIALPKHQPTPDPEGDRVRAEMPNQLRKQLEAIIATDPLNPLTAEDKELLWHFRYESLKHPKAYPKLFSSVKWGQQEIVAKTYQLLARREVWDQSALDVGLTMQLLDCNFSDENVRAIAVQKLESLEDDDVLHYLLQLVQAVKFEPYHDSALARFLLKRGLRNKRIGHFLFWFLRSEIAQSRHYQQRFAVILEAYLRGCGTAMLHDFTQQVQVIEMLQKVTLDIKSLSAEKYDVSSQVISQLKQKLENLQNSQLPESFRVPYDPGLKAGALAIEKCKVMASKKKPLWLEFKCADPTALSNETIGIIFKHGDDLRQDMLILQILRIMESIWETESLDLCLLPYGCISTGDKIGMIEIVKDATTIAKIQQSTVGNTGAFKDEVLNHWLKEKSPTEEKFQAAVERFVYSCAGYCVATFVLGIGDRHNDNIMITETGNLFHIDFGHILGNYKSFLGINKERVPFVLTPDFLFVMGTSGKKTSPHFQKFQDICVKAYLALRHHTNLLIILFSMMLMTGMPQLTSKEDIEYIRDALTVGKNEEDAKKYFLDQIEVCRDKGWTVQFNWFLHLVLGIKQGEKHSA
Experimental: as §1, §2

PI3Kβ = PI3Kβ (Homo sapiens (Human), UniProt P42338); assay: PI3K Enzyme Assay (Example A2), PI3Kβ; conditions: assay of Example A2, 1000 μM ATP
PI3Kβ, sequence (P42338 whole entry): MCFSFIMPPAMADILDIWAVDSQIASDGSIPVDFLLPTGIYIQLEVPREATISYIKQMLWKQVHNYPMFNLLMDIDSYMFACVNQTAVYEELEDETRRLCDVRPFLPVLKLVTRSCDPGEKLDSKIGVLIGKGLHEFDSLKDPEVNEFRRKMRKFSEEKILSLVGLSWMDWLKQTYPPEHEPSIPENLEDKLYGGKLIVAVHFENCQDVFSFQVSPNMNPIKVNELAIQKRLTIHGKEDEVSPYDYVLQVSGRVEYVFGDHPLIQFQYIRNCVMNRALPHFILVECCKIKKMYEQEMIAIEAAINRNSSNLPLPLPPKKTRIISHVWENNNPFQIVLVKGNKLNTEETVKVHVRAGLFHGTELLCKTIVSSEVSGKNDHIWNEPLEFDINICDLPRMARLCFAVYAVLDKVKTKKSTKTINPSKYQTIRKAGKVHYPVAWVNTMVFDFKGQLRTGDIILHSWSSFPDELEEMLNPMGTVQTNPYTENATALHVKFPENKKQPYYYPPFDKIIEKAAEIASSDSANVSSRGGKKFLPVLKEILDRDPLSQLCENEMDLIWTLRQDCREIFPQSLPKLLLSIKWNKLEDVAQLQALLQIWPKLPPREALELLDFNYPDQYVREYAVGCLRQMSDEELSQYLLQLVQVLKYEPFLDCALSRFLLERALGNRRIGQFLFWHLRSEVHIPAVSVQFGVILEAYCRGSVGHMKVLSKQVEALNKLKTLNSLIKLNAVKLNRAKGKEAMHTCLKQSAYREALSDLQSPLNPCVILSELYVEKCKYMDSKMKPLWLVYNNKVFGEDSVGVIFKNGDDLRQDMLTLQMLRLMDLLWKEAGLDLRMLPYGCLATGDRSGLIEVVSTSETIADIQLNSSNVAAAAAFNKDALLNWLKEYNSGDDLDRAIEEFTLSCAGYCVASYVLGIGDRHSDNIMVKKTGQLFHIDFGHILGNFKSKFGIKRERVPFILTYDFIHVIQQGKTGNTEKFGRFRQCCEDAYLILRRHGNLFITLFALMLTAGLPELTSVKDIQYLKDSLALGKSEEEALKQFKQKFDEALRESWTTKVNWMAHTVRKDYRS
PI3Kβ, sequence (P27986 whole entry partner): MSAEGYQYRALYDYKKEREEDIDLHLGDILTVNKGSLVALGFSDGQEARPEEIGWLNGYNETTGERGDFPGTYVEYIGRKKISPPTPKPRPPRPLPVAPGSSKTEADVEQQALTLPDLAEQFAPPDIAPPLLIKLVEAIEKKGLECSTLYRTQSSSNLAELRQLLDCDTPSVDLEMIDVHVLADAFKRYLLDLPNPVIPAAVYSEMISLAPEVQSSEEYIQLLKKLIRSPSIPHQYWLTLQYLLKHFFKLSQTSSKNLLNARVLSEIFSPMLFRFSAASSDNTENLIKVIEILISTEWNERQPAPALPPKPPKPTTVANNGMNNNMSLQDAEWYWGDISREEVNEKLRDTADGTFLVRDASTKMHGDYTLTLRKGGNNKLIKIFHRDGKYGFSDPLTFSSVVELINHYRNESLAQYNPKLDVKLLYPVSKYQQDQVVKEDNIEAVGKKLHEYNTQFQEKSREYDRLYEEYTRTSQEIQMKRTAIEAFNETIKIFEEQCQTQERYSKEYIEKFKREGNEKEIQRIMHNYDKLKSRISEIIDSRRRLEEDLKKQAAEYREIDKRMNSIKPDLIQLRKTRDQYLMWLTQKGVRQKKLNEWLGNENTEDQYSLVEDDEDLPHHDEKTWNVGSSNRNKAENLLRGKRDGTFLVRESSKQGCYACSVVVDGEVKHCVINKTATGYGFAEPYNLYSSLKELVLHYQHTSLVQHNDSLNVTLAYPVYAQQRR
Experimental: as §1, §2

PI3Kδ = PI3Kδ (Homo sapiens (Human), UniProt O00329); assay: PI3K Enzyme Assay (Example A2), PI3Kδ; conditions: assay of Example A2, 1000 μM ATP
PI3Kδ, sequence (O00329 whole entry): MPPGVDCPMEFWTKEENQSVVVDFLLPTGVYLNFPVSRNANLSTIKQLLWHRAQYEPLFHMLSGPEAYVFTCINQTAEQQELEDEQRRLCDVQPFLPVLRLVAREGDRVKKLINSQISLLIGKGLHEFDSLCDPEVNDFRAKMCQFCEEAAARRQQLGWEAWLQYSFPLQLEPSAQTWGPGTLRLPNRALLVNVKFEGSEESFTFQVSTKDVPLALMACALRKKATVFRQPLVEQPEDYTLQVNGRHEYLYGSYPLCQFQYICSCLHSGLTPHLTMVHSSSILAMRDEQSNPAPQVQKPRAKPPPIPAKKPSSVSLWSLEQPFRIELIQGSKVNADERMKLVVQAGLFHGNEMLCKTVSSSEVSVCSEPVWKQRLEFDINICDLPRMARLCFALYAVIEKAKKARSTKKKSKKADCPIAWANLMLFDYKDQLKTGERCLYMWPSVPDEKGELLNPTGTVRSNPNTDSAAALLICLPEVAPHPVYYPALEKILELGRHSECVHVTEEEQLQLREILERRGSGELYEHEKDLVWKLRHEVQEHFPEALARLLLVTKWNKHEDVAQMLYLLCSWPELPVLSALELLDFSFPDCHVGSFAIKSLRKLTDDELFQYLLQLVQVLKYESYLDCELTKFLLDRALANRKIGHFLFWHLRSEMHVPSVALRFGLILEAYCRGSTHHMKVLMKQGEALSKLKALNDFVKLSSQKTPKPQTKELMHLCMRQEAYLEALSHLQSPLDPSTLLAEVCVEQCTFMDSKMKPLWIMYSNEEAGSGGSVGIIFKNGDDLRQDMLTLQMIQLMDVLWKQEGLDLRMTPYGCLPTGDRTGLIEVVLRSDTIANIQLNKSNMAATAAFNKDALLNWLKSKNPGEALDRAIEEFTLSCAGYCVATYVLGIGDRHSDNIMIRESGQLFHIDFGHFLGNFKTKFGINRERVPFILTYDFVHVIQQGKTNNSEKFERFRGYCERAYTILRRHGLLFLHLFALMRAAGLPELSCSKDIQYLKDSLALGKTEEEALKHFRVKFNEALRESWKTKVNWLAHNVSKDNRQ
PI3Kδ, sequence (P27986 whole entry partner): as the sequence (P27986 whole entry partner) above
Experimental: as §1, §2

PI3Kδ (p110δ/p85α) = PI3Kδ (p110δ/p85α) (Homo sapiens (Human), UniProt O00329); assay: PI3Kδ Scintillation Proximity Assay (Example A3); conditions: assay of Example A3, 20 μM ATP, 20 μM PIP2
Experimental: The kinase reaction was conducted in polystyrene 384-well matrix white plate from Thermo Fisher Scientific in a final volume of 25 μL. Inhibitors were first diluted serially in DMSO and added to the plate wells before the addition of other reaction components. The final concentration of DMSO in the assay was 0.5%. The PI3K assays were carried out at room temperature in 20 mM MOPS, pH 6.7, 10 mM MgCl2, 5 mM DTT and CHAPS 0.03%. […] IC50 determination was performed by fitting the curve of percent control activity versus the log of the inhibitor concentration using the GraphPad Prism 3.0 software.

PI3Kα, sequence (P42336 whole entry, canonical isoform): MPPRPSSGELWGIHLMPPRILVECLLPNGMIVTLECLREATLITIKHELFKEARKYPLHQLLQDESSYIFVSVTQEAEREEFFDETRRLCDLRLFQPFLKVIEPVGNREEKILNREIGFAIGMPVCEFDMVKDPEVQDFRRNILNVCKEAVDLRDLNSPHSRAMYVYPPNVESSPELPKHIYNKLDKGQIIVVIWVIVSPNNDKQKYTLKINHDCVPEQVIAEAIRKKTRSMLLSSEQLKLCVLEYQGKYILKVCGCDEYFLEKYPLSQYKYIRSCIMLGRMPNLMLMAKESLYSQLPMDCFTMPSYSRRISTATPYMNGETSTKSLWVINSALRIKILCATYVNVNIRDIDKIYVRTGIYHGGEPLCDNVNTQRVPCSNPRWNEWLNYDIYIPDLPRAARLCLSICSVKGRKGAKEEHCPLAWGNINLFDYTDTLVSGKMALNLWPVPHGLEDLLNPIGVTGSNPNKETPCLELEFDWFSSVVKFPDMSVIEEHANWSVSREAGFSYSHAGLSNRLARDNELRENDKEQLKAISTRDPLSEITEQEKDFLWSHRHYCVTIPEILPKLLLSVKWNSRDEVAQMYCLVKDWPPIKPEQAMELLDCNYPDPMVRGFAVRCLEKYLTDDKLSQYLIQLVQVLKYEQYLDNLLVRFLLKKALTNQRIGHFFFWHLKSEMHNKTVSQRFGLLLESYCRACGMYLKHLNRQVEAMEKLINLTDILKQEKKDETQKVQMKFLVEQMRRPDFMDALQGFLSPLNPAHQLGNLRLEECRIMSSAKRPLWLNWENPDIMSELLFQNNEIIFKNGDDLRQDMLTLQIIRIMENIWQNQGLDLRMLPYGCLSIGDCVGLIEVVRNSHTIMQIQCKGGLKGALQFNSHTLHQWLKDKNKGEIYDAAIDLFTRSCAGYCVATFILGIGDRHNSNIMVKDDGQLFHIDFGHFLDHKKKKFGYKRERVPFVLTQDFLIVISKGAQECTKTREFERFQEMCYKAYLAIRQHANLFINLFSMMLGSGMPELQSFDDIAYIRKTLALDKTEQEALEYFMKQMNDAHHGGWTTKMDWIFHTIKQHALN
PI3Kα, sequence (P27986 whole entry partner, canonical isoform): as the sequence (P27986 whole entry partner) above

## CCOc1c([C@H](C)n2nc(C)c3c(N)ncnc32)cc(Cl)c(F)c1[C@@H]1CNC(=O)C1.Cl [(R)-4-(3-((S)-1-(4-amino-3-methyl-1H-pyrazolo[3,4-d]pyrimidin-1-yl)ethyl)-5-chloro-2-ethoxy-6-fluorophenyl)pyrrolidin-2-one hydrochloride]
PI3Kα
  fold selectivity for PI3Kδ over PI3Kα: > 100 fold
PI3Kγ
  fold selectivity for PI3Kδ over PI3Kγ: > 100 fold
PI3Kβ
  fold selectivity for PI3Kδ over PI3Kβ: > 100 fold
PI3Kδ
  selectivity for PI3Kδ: selective inhibitor for PI3Kδ

## CCOc1c([C@H](C)n2nc(C)c3c(N)ncnc32)cc(Cl)c(F)c1[C@@H]1CNC(=O)C1 [compound of Formula I, (R)-4-(3-((S)-1-(4-amino-3-methyl-1H-pyrazolo[3,4-d]pyrimidin-1-yl)ethyl)-5-chloro-2-ethoxy-6-fluorophenyl)pyrrolidin-2-one]
PI3Kδ (p110δ/p85α)
  IC50: ≤ 10 nM
